Test results published in patent US20100286254A1 (ANTISOMA RESEARCH LIMITED, priority 2007, published 2010).
Structures can show the parent of a compound that is named as a salt.

How the values were obtained:
[1] = system: human tumours; settings: monotherapy, cited from earlier work
[2] = system: syngeneic murine tumours or human tumour xenografts; settings: mouse, in vivo; cited from earlier work
[3] = Hygroscopicity; assay type: physicochemical; settings: sodium salt
[4] = Storage under controlled relative humidity (solid form stability); assay type: physicochemical
Text: A high relative humidity is here defined as a relative humidity of about 70 to 90%. […] In particular, the water content can be well controlled and remains constant, over time.

[5] = Dynamic Vapour Sorption (DVS) experiment; assay type: physicochemical; settings: 25° C.
Experimental: DVS: Dynamic vapour sorption measurements were carried out with an instrument of Surface Measurement Systems (http:www.smsuk.co.uk). The weight change of the investigated sample is monitored while the relative humidity is changed over a range from 0% r.h. to 95% r.h. at a change rate of 5% per hour.
About 10 mg of a mixture of forms B and C is placed into a suitable sample pan and investigated with a dynamic vapour sorption apparatus of Surface Measurement Systems, DVS-1 (series 1000) using software version DVS win SP2, V3.01 at 25° C. The initial relative humidity is 50% and the initial mass is 100%, thereafter the humidity is increased to 95% and kept at this level for 2 hours, then the humidity is decreased to 0%, and kept at 0% during 10 hours, then raised again to 95%. Change rates are always 5% per hour.

[6] = 52% relative humidity, ambient temperature, about two weeks

Cc1ccc2c(=O)c3cccc(CC(=O)O)c3oc2c1C [DMXAA]
tumour responses ([1]; phase I trials): few tumour responses were achieved
tumour blood flow ([1]; well-tolerated doses, dynamic MRI): significant reduction in tumour blood flow
antivascular activity, tumour blood flow [2]: prolonged inhibition of tumour blood flow leading to extensive regions of haemorrhagic necrosis

Cc1ccc2c(=O)c3cccc(CC(=O)O)c3oc2c1C [amorphous DMXAA sodium salt, DMXAA sodium salt, reference compound]
hygroscopicity [3]: very hygroscopic

Cc1ccc2c(=O)c3cccc(CC(=O)O)c3oc2c1C [form E, DMXAA sodium salt]
hygroscopicity [3]: hygroscopic

Cc1ccc2c(=O)c3cccc(CC(=O)O)c3oc2c1C [form F, DMXAA sodium salt]
change of the crystal form on storage [4, 6]: did not lead to a change of the crystal form
water content after storage [4, 6]: about 3%
form conversion on storage ([4]; 75% relative humidity at 40° C.): transforms into form B within a few days
form conversion on storage ([4]; open container, 75% relative humidity, about 34 hours): transformed into form B
hygroscopicity [3]: hygroscopic

Cc1ccc2c(=O)c3cccc(CC(=O)O)c3oc2c1C [form L, DMXAA sodium salt]
hygroscopicity [3]: hygroscopic

Cc1ccc2c(=O)c3cccc(CC(=O)[O-])c3oc2c1C.[Na+] [mixture of forms B and C, DMXAA sodium salt]
water adsorbed ([5]; at 95% r.h.): about 1%
water release ([5]; scanning r.h. to 0%): all the water is released
